According to publication PMC6556873, “Rapid Covalent-Probe Discovery by Electrophile-Fragment Screening” (Journal of the American Chemical Society, 2019):
Read-outs that look alike come from different tables or passages of the source.

Assays:
BSA = target: T1, BSA (Bos taurus, UniProt P02769); set-up: Intact protein LC/MS covalent labelling, fragments in pools of five, 200 uM each, 4 °C; conditions: 24 h, 4 °C, pool of five; 200 µM; covalent
T1 construct: gene ALB

NUDT7 = target: T2, NUDT7 (Homo sapiens, UniProt P0C024); set-up: Intact protein LC/MS covalent labelling, fragments in pools of five, 200 uM each, 4 °C; conditions: 24 h, 4 °C, pool of five; 200 µM; covalent
T2 construct: residues 14-235, E. coli, pNIC28-Bsa4, N-terminal His6 tag removed by TEV, construct 26672 Da
T2 sequence (P0C024 14-235): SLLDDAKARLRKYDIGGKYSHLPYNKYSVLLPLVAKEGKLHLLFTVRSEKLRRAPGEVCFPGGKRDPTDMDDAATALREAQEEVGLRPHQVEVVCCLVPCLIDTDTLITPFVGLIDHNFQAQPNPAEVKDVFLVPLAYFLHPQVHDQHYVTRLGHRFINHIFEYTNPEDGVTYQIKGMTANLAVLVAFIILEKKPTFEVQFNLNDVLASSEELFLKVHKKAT

OTUB2 (OTUB2A) = target: T3, OTUB2 (OTUB2A) (Homo sapiens, UniProt Q96DC9); set-up: Intact protein LC/MS covalent labelling, fragments in pools of five, 200 uM each, 4 °C; conditions: 24 h, 4 °C, pool of five; 200 µM; covalent
T3 construct: full length residues 1-234, E. coli BL21(DE3)-R3, His tag removed by TEV, construct 27312 Da
T3 sequence (Q96DC9 1-234): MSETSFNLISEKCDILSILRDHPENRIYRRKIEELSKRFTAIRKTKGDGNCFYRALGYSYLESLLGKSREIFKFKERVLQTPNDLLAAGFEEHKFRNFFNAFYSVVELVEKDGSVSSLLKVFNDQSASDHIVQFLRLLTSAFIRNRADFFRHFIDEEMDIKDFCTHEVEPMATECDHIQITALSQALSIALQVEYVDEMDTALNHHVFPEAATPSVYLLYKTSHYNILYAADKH

PCAF = target: T4, PCAF (Homo sapiens, UniProt Q92831); set-up: Intact protein LC/MS covalent labelling, fragments in pools of five, 200 uM each, 4 °C; conditions: 24 h, 4 °C, pool of five; 200 µM; covalent
T4 construct: gene KAT2B
T4 sequence (Q92831 whole entry, the tested form may be a part): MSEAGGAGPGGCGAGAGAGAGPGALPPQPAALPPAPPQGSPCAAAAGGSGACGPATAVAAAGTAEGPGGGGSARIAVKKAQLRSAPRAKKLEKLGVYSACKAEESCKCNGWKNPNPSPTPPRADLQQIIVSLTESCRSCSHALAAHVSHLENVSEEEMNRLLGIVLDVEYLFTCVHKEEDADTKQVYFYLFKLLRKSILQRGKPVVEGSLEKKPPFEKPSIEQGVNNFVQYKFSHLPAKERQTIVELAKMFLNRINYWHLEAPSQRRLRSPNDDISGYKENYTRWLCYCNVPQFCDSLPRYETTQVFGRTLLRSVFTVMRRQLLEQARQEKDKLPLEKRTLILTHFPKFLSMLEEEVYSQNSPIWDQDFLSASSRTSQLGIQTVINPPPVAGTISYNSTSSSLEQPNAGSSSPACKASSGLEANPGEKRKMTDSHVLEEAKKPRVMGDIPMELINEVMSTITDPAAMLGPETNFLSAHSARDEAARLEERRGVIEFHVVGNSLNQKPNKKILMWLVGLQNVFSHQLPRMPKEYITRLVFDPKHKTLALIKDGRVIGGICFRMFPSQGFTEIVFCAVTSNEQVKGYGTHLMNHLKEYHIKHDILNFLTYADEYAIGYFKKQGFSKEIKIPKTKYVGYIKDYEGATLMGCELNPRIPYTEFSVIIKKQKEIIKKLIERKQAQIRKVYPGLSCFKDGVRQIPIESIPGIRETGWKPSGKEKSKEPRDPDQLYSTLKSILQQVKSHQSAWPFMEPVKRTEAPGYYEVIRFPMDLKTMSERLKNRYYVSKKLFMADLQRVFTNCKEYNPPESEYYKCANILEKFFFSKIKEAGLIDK

in vitro [1] = assay: in vitro; set-up: species or system CCD841, HEK293; conditions: human, hb2 cells, read-out: HB-2 Cells Viability (%)
in vitro [2] = assay: in vitro; set-up: species or system HB2, HEK293; conditions: human, ccd841 cells
in vitro [3] = assay: in vitro; set-up: species or system HB2, CCD841; conditions: human, hek293 cells

T1 sequence (P02769 whole entry, the tested form may be a part): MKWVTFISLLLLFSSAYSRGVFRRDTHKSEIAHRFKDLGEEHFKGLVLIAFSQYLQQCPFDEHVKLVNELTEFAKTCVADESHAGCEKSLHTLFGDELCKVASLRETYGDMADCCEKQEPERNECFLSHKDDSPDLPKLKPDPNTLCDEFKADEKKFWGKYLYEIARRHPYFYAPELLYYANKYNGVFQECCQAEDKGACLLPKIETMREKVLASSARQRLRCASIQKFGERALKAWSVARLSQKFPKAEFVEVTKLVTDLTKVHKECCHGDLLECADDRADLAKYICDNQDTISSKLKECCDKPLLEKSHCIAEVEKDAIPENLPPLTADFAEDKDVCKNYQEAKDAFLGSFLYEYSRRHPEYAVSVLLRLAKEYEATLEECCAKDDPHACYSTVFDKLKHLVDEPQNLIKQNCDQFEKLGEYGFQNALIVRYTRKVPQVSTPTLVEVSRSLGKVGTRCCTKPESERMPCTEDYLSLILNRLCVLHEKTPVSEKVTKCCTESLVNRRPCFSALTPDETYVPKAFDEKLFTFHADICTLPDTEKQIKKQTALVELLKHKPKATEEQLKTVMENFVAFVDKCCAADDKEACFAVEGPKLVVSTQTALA

Question: Which results are given for CC1(C)C(=O)Nc2ccccc2N1C(=O)CCl [PCM-0102546]?
Answer: BSA (BSA): 0; NUDT7 (NUDT7): 0.18; OTUB2 (OTUB2 (OTUB2A)): 0.32; PCAF (PCAF): 0; viability at 48 h, 10 µM (in vitro [1]): 48%; viability at 48 h, 10 µM (in vitro [2]): 78.5%; viability at 48 h, 10 µM (in vitro [3]): 57.2%

Question: With C=CC(=O)N1Cc2c(OC)ccc(OC)c2C(O)C1 (stereo not shown) [PCM-0102680] as the compound, how does the BSA (BSA) read?
Answer: Its BSA is 0.1.

Question: And the NUDT7 (NUDT7)?
Answer: Its NUDT7 is 0.

Question: And the OTUB2 (OTUB2 (OTUB2A))?
Answer: The OTUB2 was 0.08.

Question: And the PCAF (PCAF)?
Answer: Its PCAF is 0.

Question: And the viability at 48 h, 10 µM (in vitro [1])?
Answer: The viability at 48 h, 10 µM was 104%.

Question: What about the viability at 48 h, 10 µM (in vitro [2]) of the same compound?
Answer: The viability at 48 h, 10 µM was 135%.

Question: What about the viability at 48 h, 10 µM (in vitro [3]) of the same compound?
Answer: Its viability at 48 h, 10 µM is 119%.

Question: For C=CC(=O)NCc1ccon1 [PCM-0102482], which BSA (BSA) is on record?
Answer: The BSA was 0.

Question: And the NUDT7 (NUDT7)?
Answer: The NUDT7 was 0.

Question: What about the OTUB2 (OTUB2 (OTUB2A)) of the same compound?
Answer: Its OTUB2 is 0.

Question: And the PCAF (PCAF)?
Answer: The PCAF was 0.

Question: What about the viability at 48 h, 10 µM (in vitro [1]) of the same compound?
Answer: The viability at 48 h, 10 µM was 98.9%.

Question: And the viability at 48 h, 10 µM (in vitro [2])?
Answer: Its viability at 48 h, 10 µM is 92.9%.

Question: And the viability at 48 h, 10 µM (in vitro [3])?
Answer: Its viability at 48 h, 10 µM is 90.3%.

Question: Which BSA (BSA) does the source give for CC(c1ccccc1)N(C)C(=O)CCl (stereo not shown) [PCM-0102478] here?
Answer: Its BSA is 0.

Question: What about the NUDT7 (NUDT7) of the same compound?
Answer: Its NUDT7 is 0.1.

Question: And the OTUB2 (OTUB2 (OTUB2A))?
Answer: Its OTUB2 is 0.

Question: And the PCAF (PCAF)?
Answer: Its PCAF is 0.

Question: What about the viability at 48 h, 10 µM (in vitro [1]) of the same compound?
Answer: The viability at 48 h, 10 µM was 27.5%.

Question: And the viability at 48 h, 10 µM (in vitro [2])?
Answer: Its viability at 48 h, 10 µM is 60.7%.

Question: What about the viability at 48 h, 10 µM (in vitro [3]) of the same compound?
Answer: Its viability at 48 h, 10 µM is 27.5%.

Question: Which BSA (BSA) does the source give for C=CC(=O)N1CCN(c2cc(C)nc(C)n2)CC1 [PCM-0102806] here?
Answer: The BSA was 0.

Question: And the NUDT7 (NUDT7)?
Answer: The NUDT7 was 0.

Question: And the OTUB2 (OTUB2 (OTUB2A))?
Answer: The OTUB2 was 0.

Question: And the PCAF (PCAF)?
Answer: The PCAF was 0.

Question: And the viability at 48 h, 10 µM (in vitro [1])?
Answer: The viability at 48 h, 10 µM was 101%.

Question: What about the viability at 48 h, 10 µM (in vitro [2]) of the same compound?
Answer: Its viability at 48 h, 10 µM is 105%.

Question: And the viability at 48 h, 10 µM (in vitro [3])?
Answer: The viability at 48 h, 10 µM was 78.9%.

Question: For Cl.O=C(CCl)N1CCN(Cc2cccs2)CC1 [PCM-0102243], which BSA (BSA) is on record?
Answer: Its BSA is 0.

Question: And the NUDT7 (NUDT7)?
Answer: The NUDT7 was 0.08.

Question: And the OTUB2 (OTUB2 (OTUB2A))?
Answer: Its OTUB2 is 0.

Question: What about the PCAF (PCAF) of the same compound?
Answer: Its PCAF is 0.

Question: What about the viability at 48 h, 10 µM (in vitro [1]) of the same compound?
Answer: Its viability at 48 h, 10 µM is 45.7%.

Question: What about the viability at 48 h, 10 µM (in vitro [2]) of the same compound?
Answer: Its viability at 48 h, 10 µM is 77.1%.

Question: What about the viability at 48 h, 10 µM (in vitro [3]) of the same compound?
Answer: Its viability at 48 h, 10 µM is 43.5%.

Question: Which BSA (BSA) does the source give for O=C(CCl)Nc1ccc(N2CCCCC2)cc1 [PCM-0102612] here?
Answer: Its BSA is 0.

Question: And the NUDT7 (NUDT7)?
Answer: The NUDT7 was 0.

Question: What about the OTUB2 (OTUB2 (OTUB2A)) of the same compound?
Answer: The OTUB2 was 0.37.

Question: What about the PCAF (PCAF) of the same compound?
Answer: The PCAF was 0.

Question: What about the viability at 48 h, 10 µM (in vitro [1]) of the same compound?
Answer: Its viability at 48 h, 10 µM is 41.7%.

Question: What about the viability at 48 h, 10 µM (in vitro [2]) of the same compound?
Answer: The viability at 48 h, 10 µM was 55.2%.

Question: And the viability at 48 h, 10 µM (in vitro [3])?
Answer: The viability at 48 h, 10 µM was 57.2%.

Question: Which results are given for O=C(CCl)N1CCCC2CCCCC21 (stereo not shown) [PCM-0102826]?
Answer: BSA (BSA): 0; NUDT7 (NUDT7): 0.07; OTUB2 (OTUB2 (OTUB2A)): 0; PCAF (PCAF): 0; viability at 48 h, 10 µM (in vitro [1]): 33.7%; viability at 48 h, 10 µM (in vitro [2]): 32.5%; viability at 48 h, 10 µM (in vitro [3]): 27.9%

Question: With O=C(CCl)NC(=O)Nc1ccc(Br)cc1 [PCM-0102308] as the compound, how does the BSA (BSA) read?
Answer: The BSA was 0.11.

Question: And the NUDT7 (NUDT7)?
Answer: The NUDT7 was 0.17.

Question: And the OTUB2 (OTUB2 (OTUB2A))?
Answer: The OTUB2 was 0.1.

Question: What about the PCAF (PCAF) of the same compound?
Answer: Its PCAF is 0.

Question: What about the viability at 48 h, 10 µM (in vitro [1]) of the same compound?
Answer: The viability at 48 h, 10 µM was 78.8%.

Question: And the viability at 48 h, 10 µM (in vitro [2])?
Answer: The viability at 48 h, 10 µM was 89.9%.

Question: And the viability at 48 h, 10 µM (in vitro [3])?
Answer: Its viability at 48 h, 10 µM is 71.6%.

Question: For Cc1cc(NC(=O)CCl)on1 [PCM-0102197], which BSA (BSA) is on record?
Answer: The BSA was 0.

Question: What about the NUDT7 (NUDT7) of the same compound?
Answer: Its NUDT7 is 0.

Question: And the OTUB2 (OTUB2 (OTUB2A))?
Answer: The OTUB2 was 0.

Question: And the PCAF (PCAF)?
Answer: The PCAF was 0.

Question: And the viability at 48 h, 10 µM (in vitro [1])?
Answer: The viability at 48 h, 10 µM was 74.3%.

Question: And the viability at 48 h, 10 µM (in vitro [2])?
Answer: Its viability at 48 h, 10 µM is 87.9%.

Question: And the viability at 48 h, 10 µM (in vitro [3])?
Answer: Its viability at 48 h, 10 µM is 68.5%.

Question: Which results are given for CC(=O)c1cccc(N2Cc3ccccc3C2=NC(=O)CCl)c1 [PCM-0102283]?
Answer: BSA (BSA): 0; NUDT7 (NUDT7): 0; OTUB2 (OTUB2 (OTUB2A)): 0; PCAF (PCAF): 0; viability at 48 h, 10 µM (in vitro [1]): 99.6%; viability at 48 h, 10 µM (in vitro [2]): 99.5%; viability at 48 h, 10 µM (in vitro [3]): 75%

Question: With O=C(CCl)N1CCCC(C(F)(F)F)C1 (stereo not shown) [PCM-0102676] as the compound, how does the BSA (BSA) read?
Answer: The BSA was 0.

Question: And the NUDT7 (NUDT7)?
Answer: Its NUDT7 is 0.14.

Question: What about the OTUB2 (OTUB2 (OTUB2A)) of the same compound?
Answer: Its OTUB2 is 0.

Question: What about the PCAF (PCAF) of the same compound?
Answer: Its PCAF is 0.

Question: What about the viability at 48 h, 10 µM (in vitro [1]) of the same compound?
Answer: Its viability at 48 h, 10 µM is 44.7%.

Question: What about the viability at 48 h, 10 µM (in vitro [2]) of the same compound?
Answer: Its viability at 48 h, 10 µM is 88.5%.

Question: What about the viability at 48 h, 10 µM (in vitro [3]) of the same compound?
Answer: Its viability at 48 h, 10 µM is 54.4%.

Question: Which results are given for O=C(CCl)N1CCN(C(=O)Nc2ccccc2)CC1 [PCM-0102257]?
Answer: BSA (BSA): 0; NUDT7 (NUDT7): 0.07; OTUB2 (OTUB2 (OTUB2A)): 0; PCAF (PCAF): 0; viability at 48 h, 10 µM (in vitro [1]): 34.8%; viability at 48 h, 10 µM (in vitro [2]): 56.6%; viability at 48 h, 10 µM (in vitro [3]): 8.5%

Question: What does the source list for N#CC(c1ccc(F)cc1)N1CCN(C(=O)CCl)CC1 (stereo not shown) [PCM-0102341]?
Answer: BSA (BSA): 0; NUDT7 (NUDT7): 0; OTUB2 (OTUB2 (OTUB2A)): 0; PCAF (PCAF): 0; viability at 48 h, 10 µM (in vitro [1]): 28.6%; viability at 48 h, 10 µM (in vitro [2]): 60.3%; viability at 48 h, 10 µM (in vitro [3]): 8.6%

Question: With O=C(CCl)Nc1nc2c(F)c(F)c(F)cc2s1 [PCM-0102144] as the compound, how does the BSA (BSA) read?
Answer: The BSA was 0.12.

Question: What about the NUDT7 (NUDT7) of the same compound?
Answer: The NUDT7 was 0.32.

Question: What about the OTUB2 (OTUB2 (OTUB2A)) of the same compound?
Answer: The OTUB2 was 0.

Question: And the PCAF (PCAF)?
Answer: The PCAF was 0.

Question: And the viability at 48 h, 10 µM (in vitro [1])?
Answer: The viability at 48 h, 10 µM was 90.9%.

Question: What about the viability at 48 h, 10 µM (in vitro [2]) of the same compound?
Answer: The viability at 48 h, 10 µM was 57.9%.

Question: And the viability at 48 h, 10 µM (in vitro [3])?
Answer: Its viability at 48 h, 10 µM is 83.1%.

Question: What does the source list for CC(=O)c1sc(NC(=O)CCl)nc1C [PCM-0102838]?
Answer: BSA (BSA): 0; NUDT7 (NUDT7): 0.12; OTUB2 (OTUB2 (OTUB2A)): 0; PCAF (PCAF): 0; viability at 48 h, 10 µM (in vitro [1]): 96%; viability at 48 h, 10 µM (in vitro [2]): 92.1%; viability at 48 h, 10 µM (in vitro [3]): 87.2%
